The results in this text go back to US6936631B2, “Bicyclic imidazo-5-yl-amine derivatives” (Gruenenthal GmbH, priority 1999, dated 2005).

The test system of the test is α2-subtype of the human α-adrenergic receptor. Nature of the test: SPA assay for affinity for the α2-subtype of the human α-adrenergic receptor (high throughput screening). To be noted: at a concentration of 10 μM. The test is classed as binding. On the procedure:
The compounds according to the invention are ligands of the pain-relevant α2-subtype of the human α-adrenergic receptor. The affinity for the α2-subtype of the human α-adrenergic receptor was determined by means of a conventional SPA assay for high throughput screening, such as is described in John P. Devlin, High Throughput Screening, Marcel Dekker Inc. 1997, page 307 to 316. This literature is incorporated herein by reference and thus forms part of the disclosure. The following affinities were determined at a concentration of 10 μM: […]
In the case of `CCCCNc1c(-c2ccc(C(C)(C)C)cc2)nc2sc(C)cn12` [Example 42, Butyl-[6-(4-tert-butyl-phenyl)-2-methyl-imidazo[2,1-b]thiazol-5-yl]-amine], the “alpha2 affinity, 10 μM” value is 36%.
With `CCCCN(C(C)=O)c1c(-c2c(F)cccc2Cl)nc2nc[nH]n12` [Example 55, N-Butyl-N-[5-(2-chloro-6-fluorophenyl)-imidazo[1,2-b][1,2,4]triazol-6-yl]-acetamide], the “alpha2 affinity, 10 μM” value stood at 39%.
For the molecule `CC(=O)Nc1ccc(-c2nc3nc[nH]n3c2NC2CCCCC2)cc1` [Example 48, N-[4-(6-Cyclohexylamino-imidazo[1,2-b][1,2,4]triazol-5-yl) -phenyl]-acetamide], the “alpha2 affinity, 10 μM” value worked out at 36%.
Next, `Cc1ccc(-c2nc3nc[nH]n3c2NC(C)(C)CC(C)(C)C)c(C)c1` [Example 53, [5-(2,4-dimethyl-phenyl)-imidazo[1,2-b][1,2,4]triazol-6-yl]-(1,1,3,3-tetramethyl-butyl) -amine]: 43%; `Cc1ccc(C)c(-c2nc3nc[nH]n3c2NC(C)(C)CC(C)(C)C)c1` [Example 54, [5-(2,5-Dimethyl-phenyl)-imidazo [1,2-b][1,2,4]triazol-6-yl]-(1,1,3,3-tetramethyl-butyl) -amine]: 56%.
Under `CCCCN(C(C)=O)c1c(-c2ccc(C(C)(C)C)cc2)nc2sc(C)cn12` [Example 56, N-Butyl-N-[6-(4-tert-butyl-phenyl)-2-methyl-imidazo[2,1-b]thiazol-5-yl]-acetamide] stands 46%.
Next, `CC(=O)N(c1c(-c2ccc(C)cc2)nc2sccn12)C(C)(C)C` [Example 52, N-tert-Butyl-N-(6-p-tolyl-imidazo[2,1-b]thiazol-5-yl)-acetamide]: 51%.
In the case of `Cc1ccc(C)c(-c2nc3nc[nH]n3c2NC(C)(C)C)c1` [Example 49, tert-Butyl-[5-(2,5-dimethyl-phenyl)-imidazo[1,2-b][1,2,4]triazol-6-yl]-amine], the “alpha2 affinity, 10 μM” value is reported as 38%.
As for `Cc1ccc(C)c(-c2nc3sccn3c2NC2CCCCC2)c1` [Example 51, Cyclohexyl-[6-(2,5-dimethylphenyl)-imidazo[2,1-b]thiazol-5-yl]-amine], the “alpha2 affinity, 10 μM” value came out at 39%.
Turning to `CC(C)(C)Nc1c(-c2cccc3ccccc23)nc2nc[nH]n12` [Example 45, tert-Butyl-(5-naphthalen-1-yl-imidazo[1,2-b][1,2,4]triazol-6-yl)-amine], the “alpha2 affinity, 10 μM” value came out at 41%.
Next, `CC(C)(C)Nc1c(-c2ccccc2F)nc2sccn12` [Example 44, tert-Butyl-[6-(2-fluorophenyl)-imidazo[2,1-b]thiazol-5-yl]-amine]: 38%.
Turning to `Cc1ccc(-c2nc3sccn3c2NC2CCCCC2)c(C)c1` [Example 50, Cyclohexyl-[6-(2,4-dimethyl-phenyl)-imidazo[2,1-b]thiazol-5-yl]-amine], the “alpha2 affinity, 10 μM” value is 36%.
Next, `CC(C)(C)CC(C)(C)Nc1c(-c2ccccc2Br)nc2nc[nH]n12` [Example 47, [5-(2-Bromophenyl)-imidazo[1,2-b][1,2,4]triazol-6-yl]-(1,1,3,3-tetramethyl-butyl)-amine]: 42%.
Under `CC(C)(C)Nc1c(-c2ccccc2F)nc2nc[nH]n12` [Example 43, tert-Butyl-[5-(2-fluorophenyl)-imidazo[1,2-b][1,2,4]triazol-6-yl]-amine] stands 34%; under `c1ccc2c(-c3nc4nc[nH]n4c3NC3CCCCC3)cccc2c1` [Example 46, Cyclohexyl-(5-naphthalen-1-yl-imidazo[1,2-b][1,2,4]triazol-6-yl)-amine], 46%.
